Tests used:
Experiment in all cases: relative viability (nuclei count vs DMSO), 5 days (fraction); higher = more cells survive
[1] = compound: COc1cccc2cc(-c3nc([C@H]4CC[C@H](C(=O)O)CC4)n4ncnc(N)c34)[nH]c12 [OSI-027] + C[C@@H](Oc1cc(-c2cnn(C3CCNCC3)c2)cnc1N)c1c(Cl)ccc(F)c1Cl [Crizotinib] (partner 1 µM)
Summary of the method: (§1)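 Dosing by pin tool came one day after lung cancer cell lines were seeded in 1536-well plates, using either one drug or a fixed anchor-drug dose plus five library-drug doses (not always all listed) in √10 steps. After 5 days, nuclei were counted on 4× images. Relative viability is treated-well nuclei count divided by vehicle-well nuclei count, and values are medians of duplicate plates.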

[2] = compound: COc1cccc2cc(-c3nc([C@H]4CC[C@H](C(=O)O)CC4)n4ncnc(N)c34)[nH]c12 [OSI-027] + O=C(CCCCCCC(=O)Nc1ccccc1)NO [Vorinostat] (partner 1 µM)
Summary of the method: as §1

[3] = compound: CCCS(=O)(=O)Nc1ccc(F)c(C(=O)c2c[nH]c3ncc(-c4ccc(Cl)cc4)cc23)c1F [Vemurafenib] + Cc1nc(Nc2ncc(C(=O)Nc3c(C)cccc3Cl)s2)cc(N2CCN(CCO)CC2)n1 [Dasatinib] (partner 0.075 µM)
Summary of the method: as §1

[4] = compound: Cc1nc(NC(=O)N2CCC[C@H]2C(N)=O)sc1-c1ccnc(C(C)(C)C(F)(F)F)c1 [Alpelisib] + N=C(N)NC(=N)NCCc1ccccc1 [Phenformin] (partner 250 µM)
Summary of the method: as §1

| Cell Line | relative viability ([1]; first compound 0.01 µM) | relative viability ([1]; first compound 0.03162 µM) | relative viability ([1]; first compound 0.1 µM) | relative viability ([1]; first compound 0.3162 µM) | relative viability ([1]; first compound 1 µM) | relative viability ([2]; first compound 0.01 µM) | relative viability ([2]; first compound 0.03162 µM) | relative viability ([2]; first compound 0.1 µM) | relative viability ([2]; first compound 0.3162 µM) | relative viability ([2]; first compound 1 µM) | relative viability ([3]; first compound 0.03162 µM) | relative viability ([3]; first compound 0.1 µM) | relative viability ([3]; first compound 0.3162 µM) | relative viability ([3]; first compound 1 µM) | relative viability ([4]; first compound 0.04 µM) | relative viability ([4]; first compound 0.1265 µM) | relative viability ([4]; first compound 0.4 µM) | relative viability ([4]; first compound 1.265 µM) | relative viability ([4]; first compound 4 µM) |
| --- | --- | --- | --- | --- | --- | --- | --- | --- | --- | --- | --- | --- | --- | --- | --- | --- | --- | --- | --- |
| SK-LU-1 | 0.937 | 0.789 | 0.644 | 0.531 | 0.358 | 0.809 | 0.618 | 0.682 | 0.563 | 0.411 | 0.16 | 0.17 | 0.159 | 0.185 | 0.495 | 0.498 | 0.434 | 0.408 | 0.358 |
| NCI-H460 | 0.888 | 0.714 | 1.06 | 0.759 | 0.184 | 1.06 | 0.594 | 0.685 | 0.65 | 0.219 | 0.469 | 0.545 | 0.341 | 0.537 | 0.484 | 0.526 | 0.554 | 0.447 | 0.142 |
| NCI-H1915 | 0.928 | 0.829 | 0.931 | 0.896 | 0.584 | 0.542 | 0.502 | 0.479 | 0.426 | 0.34 | 0.294 | 0.343 | 0.267 | 0.358 | 0.361 | 0.378 | 0.389 | 0.346 | 0.347 |
| NCI-H2126 | 1.04 | 0.986 | 0.996 | 0.915 | 0.664 | 0.703 | 0.682 | 0.692 | 0.627 | 0.586 | 0.562 | 0.584 | – | 0.537 | 0.541 | 0.498 | 0.501 | 0.381 | 0.343 |
| EPLC-272H | 1.05 | 0.872 | 0.944 | 0.697 | 0.787 | 0.384 | 0.358 | 0.267 | 0.384 | 0.233 | 0.299 | 0.25 | 0.338 | 0.41 | 0.303 | 0.267 | 0.351 | 0.279 | 0.244 |
| LCLC-103H | 1.07 | 1.03 | 1.18 | 0.948 | 1.01 | 0.781 | 0.64 | 0.747 | 0.704 | 0.613 | 0.45 | 0.505 | 0.317 | 0.388 | 0.344 | 0.347 | 0.311 | 0.245 | 0.272 |
| NCI-H661 | 0.998 | 1.1 | 1.14 | 1.15 | 0.645 | 0.806 | 0.801 | 0.759 | 0.717 | 0.458 | 0.829 | 0.59 | 0.54 | 0.938 | 0.285 | 0.281 | 0.253 | 0.245 | 0.262 |
| PC-3 [JPC-3] | 0.999 | 0.943 | 1.02 | 0.984 | 0.551 | 0.649 | 0.787 | 0.454 | 0.56 | 0.527 | 0.921 | – | 0.9 | 1.08 | 0.502 | 0.496 | 0.503 | 0.454 | 0.463 |
| NCI-H2087 | 0.991 | 0.971 | 0.753 | 0.866 | 0.53 | 0.971 | 0.769 | 0.613 | 0.815 | 0.161 | 0.751 | 0.789 | – | 0.897 | 0.491 | 0.483 | 0.501 | 0.36 | 0.284 |
| NCI-H1666 | 1 | 1.09 | 0.754 | 0.76 | 0.524 | 0.993 | 1.02 | 1.01 | 0.915 | 0.667 | 0.741 | 0.837 | 0.644 | 0.709 | 0.557 | 0.602 | 0.576 | 0.591 | 0.564 |
| NCI-H2009 | 1.05 | 0.998 | 0.879 | 0.941 | 0.72 | 0.735 | 0.718 | 0.708 | 0.675 | 0.588 | 0.294 | 0.278 | 0.171 | 0.254 | 0.502 | 0.458 | 0.555 | 0.456 | 0.468 |
| NCI-H2228 | 0.525 | 0.524 | 0.485 | – | 0.239 | 0.509 | 0.511 | 0.528 | 0.564 | 0.45 | 0.399 | 0.474 | 0.54 | 0.502 | 0.363 | 0.284 | 0.306 | 0.171 | 0.175 |
| SK-MES-1 | 0.995 | 0.933 | 0.997 | 0.965 | 0.52 | 1.21 | 1.08 | 0.972 | 0.913 | 0.593 | 0.372 | 0.155 | 0.303 | 0.389 | 0.662 | 0.635 | 0.755 | 0.608 | 0.675 |
| LCLC-97TM1 | 0.246 | 0.407 | 0.322 | 0.267 | 0.105 | 0.816 | 0.642 | 0.699 | 0.503 | 0.345 | 0.76 | 0.853 | 1.05 | 0.685 | 0.493 | 0.439 | 0.385 | 0.248 | 0.19 |
| NCI-H596 | 0.946 | 1.07 | 1.05 | 0.838 | 0.734 | 0.459 | 0.685 | 0.497 | 0.523 | 0.416 | 0.567 | 0.66 | 0.549 | 0.515 | 0.669 | 0.709 | 0.695 | 0.421 | 0.329 |
| BEN | 0.921 | 0.545 | 0.612 | 0.34 | 0.393 | 0.557 | 0.55 | 0.511 | 0.428 | 0.297 | 0.274 | 0.257 | – | 0.309 | 0.262 | 0.239 | 0.267 | 0.296 | 0.281 |
| LU99A | 0.522 | 0.522 | 0.46 | 0.313 | 0.208 | 0.491 | 0.667 | 0.396 | 0.304 | 0.232 | 0.425 | 0.554 | 0.389 | 0.431 | 0.883 | 0.843 | 0.856 | 0.709 | 0.657 |

From the supplement of paper PMC10307832
